Biological target: T1, COX-2 (cyclooxygenase-2) (Homo sapiens, UniProt P35354)
T1 construct: gene PTGS2
T1 sequence (P35354 18-604): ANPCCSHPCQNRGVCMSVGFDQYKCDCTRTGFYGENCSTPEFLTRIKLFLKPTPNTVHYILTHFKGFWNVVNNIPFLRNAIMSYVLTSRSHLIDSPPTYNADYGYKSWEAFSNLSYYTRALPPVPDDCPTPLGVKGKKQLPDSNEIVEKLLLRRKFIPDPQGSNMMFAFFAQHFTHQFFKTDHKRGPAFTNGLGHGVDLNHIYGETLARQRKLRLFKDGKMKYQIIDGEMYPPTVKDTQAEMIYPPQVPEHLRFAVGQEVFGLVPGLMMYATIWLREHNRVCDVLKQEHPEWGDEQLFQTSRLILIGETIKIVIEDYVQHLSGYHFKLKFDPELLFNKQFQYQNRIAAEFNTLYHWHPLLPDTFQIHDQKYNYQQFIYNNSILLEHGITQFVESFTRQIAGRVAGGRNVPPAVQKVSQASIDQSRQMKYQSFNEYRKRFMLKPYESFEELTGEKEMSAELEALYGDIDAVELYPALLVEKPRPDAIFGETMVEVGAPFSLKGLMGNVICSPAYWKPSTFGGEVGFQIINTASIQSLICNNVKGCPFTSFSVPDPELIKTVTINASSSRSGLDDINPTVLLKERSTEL
Test: biochemical

Row | Structure (SMILES) | IC50 [µM]
1 | CC(=O)O[C@H]1[C@@H](O)C=C2C[C@@]3(O)OC[C@@]4(C)O[C@]43C[C@]2(C)[C@H]1C [compound 2, fureremophilane B] | 123
2 | CC(=O)O[C@H]1C=C2C[C@@]3(O)OC[C@@]4(C)O[C@]43C[C@]2(C)[C@@H](C)[C@H]1O [compound 3, fureremophilane C] | 93.4

From publication PMC11677535, “Eremophilane- and Acorane-Type Sesquiterpenes from the Deep-Sea Cold-Seep-Derived Fungus Furcasterigmium furcatum CS-280 Cultured in the Presence of Autoclaved Pseudomonas aeruginosa QDIO-4” (Marine Drugs, 2024)
